Read-outs that look alike come from different tables or passages of the source. No end group written: not given here.
How the values were obtained:
[1] = tested on: Isoproterenol induced rats; experiment: Cardiac remodeling induced by Isoproterenol; type: in vivo, Wistar rats; conditions: isoproterenol 2 mg/kg/day s.c. 7 days; peptides 1 ug/hour/Kg osmotic minipump; Losartan 1 mg/kg once a day by gavage
Procedure: The effect of the peptides […] (SEQ ID NO:10), […]-dimer ([…]) (SEQ ID […]), P33_V (SEQ ID NO:7), P33-dimer (P33_D) (SEQ ID NO:6) on cardiac remodeling, was tested by determining their effect on heart hypertrophy and fibrosis (deposition of collagen I, III, and fibronectin) induced by Isoproterenol. Losartan (an antagonist of the known angiotensin II receptor, AT1, Kucharewicz et al., 2002; Hypertension, (40): 774-779) was used as positive control. The negative control group was treated with vehicle only. Additional control groups included rats not-treated with isoproterenol which were treated with the peptides, with Losartan or with the vehicle. The analysis included determination of the left ventricle mass and morphometry. In addition, immunofuorescence analysis of fibronectin and collagens I and III deposition was performed by confocal microscopy. Animals Acclimatization: Male Wistar rats Age: 13-14 weeks (250 to 300 g) were maintained in the animal facilities for 7 days before the beginning of the experiment. The animals were exposed to a brightness circle of light-dark cycle of 12 hs (day-06:00 to 18:00; night-18:00 to 06:00), and the room temperature was kept at 23±2° C. Heart failure was induced by daily injections of isoproterenol (2 mg/kg/day, subcutaneously) during 7 days. […] Immunofluorescence-labeling and quantitative confocal microscopy was used to investigate the distribution and quantity of collagen types I, III and fibronectin present in the left ventricles. […] Optimal confocal settings (aperture, gain and laser power) were determined at the beginning of each imaging session and then held constant during the analysis of all the samples. […] For quantitative analysis of collagens I, III, and fibronectin, the ImageTool 2.0 image analysis program was used ([…].edu/[…]) to measure the fluorescence intensity in images randomly selected. […]

MrgX2 = target: T1, MrgX2 (Homo sapiens, UniProt Q96LB1); experiment: Calcium flux in CHO-K1 cells co-transfected with MrgX2 and Gα16; type: cell-based; conditions: for calcium flux relative to the negative control: 1 μM, about 20 to 90 seconds; for eliciting calcium flux compared to cortistatin-14: MrgX2-expressing cells, summary statement
T1 construct: expressed in transfected cells; host or cells: CHO-K1 (ATCC-CCL-61), transient co-transfection
T1 sequence (Q96LB1 1-330): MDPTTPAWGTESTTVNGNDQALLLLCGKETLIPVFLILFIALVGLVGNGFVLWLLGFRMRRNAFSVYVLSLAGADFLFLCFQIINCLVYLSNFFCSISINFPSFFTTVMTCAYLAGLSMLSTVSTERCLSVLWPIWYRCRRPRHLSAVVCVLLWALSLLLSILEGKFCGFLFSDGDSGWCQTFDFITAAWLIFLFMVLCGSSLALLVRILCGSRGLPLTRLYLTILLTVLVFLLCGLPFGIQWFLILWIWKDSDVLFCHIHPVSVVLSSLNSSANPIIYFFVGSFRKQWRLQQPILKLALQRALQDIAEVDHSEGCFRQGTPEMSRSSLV
Procedure: (§1) The assay was carried out in CHO cells were transiently transfected with the GPCR of choice, by utilizing the promiscuous Gα16 to divert signaling to the Gq pathway, thus enabling readout of GPCR activation by testing for Calcium flux as described by Liu et al 2003 (Biomol Screen 8, 39-49).
(§2) All the peptides thus obtained were tested for their ability to change calcium flux in CHO—K1 cells (ATCC-CCL-61) transiently co-transfected with an expression vector containing the GPCR of choice and expression vector containing the Gα16 encoding cDNA. Expression constructs containing cDNA clones for MrgX1, MrgX2, Mas or FPRL1 were commercially obtained in one of the following expression vectors: pcDNA3.1, pCMV6, or MO2.
(§3) Transient transfections were performed using CHO—K1 cells as host cells. Cells (12 million) were plated into T75 flasks on the day preceding transfection. Cells were transfected with the appropriate GPCR expression vector and with a vector expressing Gα16 using a lipid-based reagent, MTI, according to the manufacturer's recommendation. Cells were transfected for 5 hours, then re-plated into 96-well dishes (60,000 cells per well) and grown overnight.
(§4) On the day of the experiment, cells were loaded with Fluo4-NW (Invitrogen) according to the manufacturer's recommendation. Plates were loaded into a FlexStation™ (Molecular Devices) plate reader and fluorescence was monitored. Seventeen seconds following initiation of reading, cells were stimulated with the indicated agonist/compound at final concentration of 1 μM. Each 96 well plate contained cells transfected with one GPCR expression vector and each of the examined peptides was tested in triplicate.
(§5) We defined a hit as a peptide which elicited a clear and distinct increase in intracellular calcium that is clearly visible and statistically significant upon examination of the calcium trace for at least two repeats. The criterion for statistical significance was a p-value lower than 0.001 in a t-test comparing the levels of calcium before and after peptide addition.
(§6) Based on dose response experiments, EC50 best fit values were calculated by non-linear regression of sigmoidal dose-response curves, using Prism version 4 (GraphPad Software Inc., San Diego, Calif.). The formulae for the sigmoidal dose-response curves was defined as Y=Bottom+(Top−Bottom)/(1+10^ (LogEC50−X)*HillSlope))
The ability of Peptides to change calcium flux was examined in CHO—K1 cells co-transfected with MrgX2 and Gal 6.

FPRL1 = target: T2, FPRL1 (Homo sapiens, UniProt P25090); experiment: Calcium flux in CHO-K1 cells co-transfected with FPRL1 and Gα16; type: cell-based; design: expressed in transfected cells; host or cells: CHO-K1 (ATCC-CCL-61), transient co-transfection; conditions: for calcium flux, P58 and derivatives: dose response
T2 sequence (P25090 1-351): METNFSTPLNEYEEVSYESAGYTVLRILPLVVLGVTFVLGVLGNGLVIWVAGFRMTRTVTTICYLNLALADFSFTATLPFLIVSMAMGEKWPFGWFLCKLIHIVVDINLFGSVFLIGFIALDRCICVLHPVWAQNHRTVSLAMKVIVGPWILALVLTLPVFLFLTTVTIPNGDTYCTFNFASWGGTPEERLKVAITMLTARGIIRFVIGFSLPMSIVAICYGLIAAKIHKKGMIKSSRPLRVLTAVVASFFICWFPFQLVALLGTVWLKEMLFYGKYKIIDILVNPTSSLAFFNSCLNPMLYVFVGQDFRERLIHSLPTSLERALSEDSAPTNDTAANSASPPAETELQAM
Procedure: as §1, §2, §3, §4, §5, §6
The ability of Peptides to change calcium flux was examined in CHO—K1 cells co-transfected with FPRL1 and Gal 6.

[2] = tested on: Zymosan-induced murine dorsal air pouch model; type: in vivo, mice; conditions: 4 h; for inhibition of zymosan-induced neutrophil (GR-1+) accumulation: FACS
Procedure: The anti-inflammatory activity of P58 shorter derivatives was tested in the same model of acute inflammation used in Example 6, the Zymosan-induced murine dorsal air pouch model.
Male out-bred Swiss albino mice were purchased from Harlan, UK (T.O. strain) and maintained on a standard chow pellet diet with tap water ad libitum and a 12:00 h light/dark cycle. All animals were housed for 7 days prior to experimentation to allow body weight to reach ˜25 g on the day of the experiment.
Drugs were stored at −20° C. and defrosted on the day of the experiment. Peptide P58 (SEQ ID NO:1) was provided lyophilized; it was taken back to room temperature and dissolved with sterile PBS before use to make an initial 1 mg/ml solution. Peptide P58-4 (SEQ ID NO:2) was provided lyophilized; it was taken back to room temperature and dissolved with sterile PBS before use to make an initial 327 μg/ml solution. Peptide P58-5 (SEQ ID NO:3) was provided lyophilized; it was taken back to room temperature and dissolved with sterile PBS before use to make an initial 476 μg/ml solution. Vehicle consisted of sterile pyrogen free PBS (Gibco, cat no. 14190-094). Once dissolved, peptides P58 (SEQ ID NO:1), P58-4 (SEQ ID NO:2) and P58-5 (SEQ ID NO:3) gave a clear solution. Drugs or vehicle were administered i.v. at a final volume of 200 μl in the doses described below.
Lavage fluids were kept all the time on ice, then used to determine the number of migrated leukocytes, by taking an aliquot (100 μl) and diluting it 1:10 in Turk's solution (0.01% crystal violet in 3% acetic acid). The samples were then vortexed and 10 μl of the stained cell solution were placed in a Neubauer haematocymometer. Differential cell count was done using a light microscope (Olympus B061). In view of their chromatic characteristics and their nucleus and cytoplasm appearance, polymorphonuclear leukocytes (PMN; >95% neutrophils) could be easily identified.
For FACS analyses, an aliquot of lavage fluid was stained with the PE-conjugated anti-GR-1 monoclonal antibody (1:100 dilution, eBiosciences; Cat 11-5931) to mark polymorphonuclear leukocytes. Staining was performed at 4° C. Flow cytometry was performed using FACScan analyser (Becton Dickinson, Cowley, UK) with air-cooled 100 mW argon laser tuned to 488 nm connected to an Apple Macintosh G3 computer running Cell Quest II software. Forward and sidescatter characteristics were initially used to distinguish between the three distinct cell populations (lymphocytes, monocytes and granulocytes). Cells positive for GR-1 were detected in the FL2 channel (wavelength of 548 nm). Data are expressed as percentage of positive cells (in relation to the specific mAb). Determination of positive and negative populations was performed based on the control staining with irrelevant IgG isotype (rat IgG2b) labelled with PE. Once determined, quadrants were rigorously maintained for all analyses.
Data are shown for single mice, and also shown as mean±S.E. of (n) mice per group. Statistical differences were determined by ANOVA, plus Student Newman Keuls test. A P value<0.05 was taken as significant.

Molecule	calcium flux relative to the negative control (MrgX2)	eliciting calcium flux compared to cortistatin-14 (MrgX2)	inhibition of leukocyte accumulation triggered by zymosan A ([2]; 20 nmole/mouse i.v.)	inhibition of leukocyte accumulation triggered by zymosan A ([2]; 80 nmole/mouse i.v.) [%]	calcium flux, P58 and derivatives (FPRL1)	further results
CCCCc1nc(Cl)c(CO)n1Cc1ccc(-c2ccccc2-c2nn[nH]n2)cc1 [Losartan, reference compound]	–	–	–	–	–	effect on Isoproterenol induced raise in the left ventricle to body mass ratio (LV/BW) [1]: did not have an effect
AAQATGPLQDNELPGLDERPPRAHAQHFHKHQLWPSPFRALKPRP (listed as Homo sapiens) [Peptide P94]	increased calcium flux	superior to cortistatin-14	–	–	–	calcium flux relative to the negative control (FPRL1; 1 μM, three wells, about 20 to 90 seconds): increased calcium flux
AHAQHFHKHQLWPSPFRALKPRP (listed as Homo sapiens) [Peptide 63]	increased calcium flux	superior to cortistatin-14	–	–	–	–
FTSWFM-amide (FTSWFM-NH2; listed as Homo sapiens) [P58—4]	–	–	35%	47	elicited calcium flux	inhibition of zymosan-induced neutrophil (GR-1+) accumulation ([2]; 80 nmole/mouse i.v.): 49%
LQKFTSWFM-amide (LQKFTSWFM-NH2; listed as Homo sapiens) [P58—5]	–	–	did not inhibit leukocyte migration	29	elicited calcium flux	inhibition of zymosan-induced neutrophil (GR-1+) accumulation ([2]; 20 nmole/mouse i.v.): weak effect
